Where a name gives a salt, the structure may show the parent alone. Read-outs that look alike come from different tables or passages of the source.
Key:
[1] = tested on: K+ channels in SCG neurons; test: Potassium current in superior cervical ganglion neurons (whole-cell voltage clamp); type: cell-based, rat
Method: (§1) Electrophysiological techniques were used to measure the effects of experimental compounds on voltage-gated Ca^2+, […] , and K^+ channels. […] Sodium and potassium channel currents were measured from acutely dissociated SCG neurons.
(§2) Dissociation of the neurons from the ganglia was accomplished using a 30 to 45 minute treatment in 0.25% trypsin, similar to methods outlined in Higgins, et al. (see Higgins D. et al. “Tissue culture of mammalian autonomic neurons.” In Banker G. and Goslin K. (Eds), Culturing Nerve Cells, Cambridge, Mass., MIT Press [1991]).
(§3) Ca^2+, Na^+, and K^+ channel currents in SCG neurons were measured using conventional single electrode whole-cell voltage-clamp techniques, outlined in Hamill et al., (see Hamill O. P. et al. “Improved patch-clamp techniques for high resolution current recordings from cells and cell-free membrane patches.”Pflugers Arch., 1981;391:85-100). For Ca^2+ channel experiments, the external bathing solution contained tetraethylammonium chloride (100 mM), choline chloride (52 mM), NaCl (15 mM), HEPES (10 mM), glucose (5.6 mM), CaCl2 (2 mM), and MgCl2 (0.8 mM), pH 7.35 with KOH; with the internal pipette solution containing cesium methane sulfonate (140 mM), EGTA (10 mM), and HEPES (10 mM), supplemented with 5 mM Mg^2+-ATP on the day of the experiment, pH 7.4 with CsOH. For Na^+ and K^+ channel experiments, the external bathing solution contained NaCl (150 mM), KCl (5 mM), MgCl2 (1.1 mM), CaCl2 (2.6 mM), Na-HEPES (10 mM), and glucose (10 mM), pH 7.4; with the internal pipette solution containing KCl (80 mM), K-gluconate (50 mM), HEPES (10 mM), and EGTA (10 mM), pH 7.4 with KOH. Experimental compounds were diluted into the external solution and applied to the soma of cells by local perfusion from large diameter (20-50 μm) glass micropipettes or from a U-tube applicator.
(§4) For Na^+ and K^+ channel currents, following the determination of the I/V relationship for each cell in control solution, currents were evoked from a holding potential between −65 and −55 mV by stepping every 10 sec to a test potential of either 0 mV for Na^+ or +50 mV for K^+ current for a duration of 35 msec. Peak inward current was measured for Na^+ and sustained current for K^+ channel currents. […] Test compounds were applied until steady-state block was achieved. Data were expressed as percent inhibition of control amplitudes for Na^+ and K^+ channel currents.

[2] = tested on: Na+ channels in SCG neurons; test: Sodium current in superior cervical ganglion neurons (whole-cell voltage clamp); type: cell-based, rat; settings: at 10 μM
Method: as §1, §2, §3, §4

[3] = target: T1, N-type Ca2+ channels in cultured superior cervical ganglion (SCG) neurons (Rattus norvegicus, UniProt Q02294); test: Calcium current in superior cervical ganglion neurons (whole-cell voltage clamp); type: cell-based; settings: for inhibition at 1 µM: read-out: SCG Ca, % blockage at 1 μM; for inhibition at 10 µM: read-out: SCG Ca, % blockage at 10 μM
T1 construct: from tissue
Method: as §1, §2, §3
After obtaining a whole-cell recording, Ca^2+ channels were elicited by stepping to test potentials between −40 and +20 mV for 120 msec from the holding potential of −90 mV to determine if the amplitude of the current and clamp control were adequate for evaluation of drug effects. Ca^2+ channel currents were evoked by stepping from a holding potentials between −65 mV and −55 mV to a test potential of +20 mV for 150 msec every 40 seconds. The amplitude of the Ca^2+ channel currents were compared before and during drug application and drug effects expressed as percent inhibition of the amplitude of control currents.

[4] = tested on: sound-induced tonic convulsions in DBA/2 mice; test: Audiogenic seizure model in DBA/2 mice; type: in vivo; settings: Mus musculus, 30 mg/Kg IV, protected/tested, read-out: Number of Mice Protected From Tonic Convulsions (converted)
Method: Audiogenic Seizure Model in DBA/2 Mice
A compound of the present invention was dissolved in water using 10% (weight/volume) Emulphor (GAF Corp., Wayne, N.J.) surfactant. Substances were administered by intravenous injection into the retro-orbital venous sinus of male mice (3-4 weeks old, Jackson Laboratories, Bar Harbour, Me.). All testing was preformed 15 minutes or 45 minutes after drug injection. Immediately before anticonvulsant testing, mice were placed upon a wire mesh, 4 inches square suspended from a steel rod. The square was slowly inverted through 180 degrees and mice observed for 30 seconds. Any mouse falling from the wire mesh was scored as ataxic.
Mice were placed into an enclosed acrylic plastic chamber (21 cm height, approximately 30 cm diameter) with a high-frequency speaker (4 cm diameter) in the center of the top lid. An audio signal generator (Protek model B-810) was used to produce a continuous sinusoidal tone that Was swept linearly in frequency between 8 kHz and 16 kHz once each 10 msec. The average sound pressure level (SPL) during stimulation was approximately 100 dB at the floor of the chamber. Mice were placed within the chamber and allowed to acclimatize for 1 minute. DBA/2 mice in the vehicle-treated group responded to the sound stimulus (applied until tonic extension occurred, or for a maximum of 60 sec) with a characteristic seizure sequence consisting of wild running followed by clonic seizures, and later by tonic extension, and finally by respiratory arrest and death in 80% or more of the mice. In vehicle-treated mice, the entire sequence of seizures to respiratory arrest lasts approximately 15-20 seconds.
The incidence of all the seizure phases in the drug-treated and vehicle-treated mice was recorded, and the occurrence of tonic seizures were used for calculating anticonvulsant ED50 values by probit analysis. Mice were used only once for testing at each time and dose point.

[5] = target: T2, N-type calcium channels in IMR-32 cells (Homo sapiens, UniProt Q00975); test: N-type Ca2+ channel blocking potency in IMR-32 cells using Indo-1; type: cell-based; settings: for IC50: IMR-32 cells, 5 μM nitrendipine present, read-out: IMR32 IC50
T2 construct: host or cells: IMR-32 cells differentiated with dibutyryl cAMP and bromodeoxyuridine
T2 sequence (Q00975 whole entry): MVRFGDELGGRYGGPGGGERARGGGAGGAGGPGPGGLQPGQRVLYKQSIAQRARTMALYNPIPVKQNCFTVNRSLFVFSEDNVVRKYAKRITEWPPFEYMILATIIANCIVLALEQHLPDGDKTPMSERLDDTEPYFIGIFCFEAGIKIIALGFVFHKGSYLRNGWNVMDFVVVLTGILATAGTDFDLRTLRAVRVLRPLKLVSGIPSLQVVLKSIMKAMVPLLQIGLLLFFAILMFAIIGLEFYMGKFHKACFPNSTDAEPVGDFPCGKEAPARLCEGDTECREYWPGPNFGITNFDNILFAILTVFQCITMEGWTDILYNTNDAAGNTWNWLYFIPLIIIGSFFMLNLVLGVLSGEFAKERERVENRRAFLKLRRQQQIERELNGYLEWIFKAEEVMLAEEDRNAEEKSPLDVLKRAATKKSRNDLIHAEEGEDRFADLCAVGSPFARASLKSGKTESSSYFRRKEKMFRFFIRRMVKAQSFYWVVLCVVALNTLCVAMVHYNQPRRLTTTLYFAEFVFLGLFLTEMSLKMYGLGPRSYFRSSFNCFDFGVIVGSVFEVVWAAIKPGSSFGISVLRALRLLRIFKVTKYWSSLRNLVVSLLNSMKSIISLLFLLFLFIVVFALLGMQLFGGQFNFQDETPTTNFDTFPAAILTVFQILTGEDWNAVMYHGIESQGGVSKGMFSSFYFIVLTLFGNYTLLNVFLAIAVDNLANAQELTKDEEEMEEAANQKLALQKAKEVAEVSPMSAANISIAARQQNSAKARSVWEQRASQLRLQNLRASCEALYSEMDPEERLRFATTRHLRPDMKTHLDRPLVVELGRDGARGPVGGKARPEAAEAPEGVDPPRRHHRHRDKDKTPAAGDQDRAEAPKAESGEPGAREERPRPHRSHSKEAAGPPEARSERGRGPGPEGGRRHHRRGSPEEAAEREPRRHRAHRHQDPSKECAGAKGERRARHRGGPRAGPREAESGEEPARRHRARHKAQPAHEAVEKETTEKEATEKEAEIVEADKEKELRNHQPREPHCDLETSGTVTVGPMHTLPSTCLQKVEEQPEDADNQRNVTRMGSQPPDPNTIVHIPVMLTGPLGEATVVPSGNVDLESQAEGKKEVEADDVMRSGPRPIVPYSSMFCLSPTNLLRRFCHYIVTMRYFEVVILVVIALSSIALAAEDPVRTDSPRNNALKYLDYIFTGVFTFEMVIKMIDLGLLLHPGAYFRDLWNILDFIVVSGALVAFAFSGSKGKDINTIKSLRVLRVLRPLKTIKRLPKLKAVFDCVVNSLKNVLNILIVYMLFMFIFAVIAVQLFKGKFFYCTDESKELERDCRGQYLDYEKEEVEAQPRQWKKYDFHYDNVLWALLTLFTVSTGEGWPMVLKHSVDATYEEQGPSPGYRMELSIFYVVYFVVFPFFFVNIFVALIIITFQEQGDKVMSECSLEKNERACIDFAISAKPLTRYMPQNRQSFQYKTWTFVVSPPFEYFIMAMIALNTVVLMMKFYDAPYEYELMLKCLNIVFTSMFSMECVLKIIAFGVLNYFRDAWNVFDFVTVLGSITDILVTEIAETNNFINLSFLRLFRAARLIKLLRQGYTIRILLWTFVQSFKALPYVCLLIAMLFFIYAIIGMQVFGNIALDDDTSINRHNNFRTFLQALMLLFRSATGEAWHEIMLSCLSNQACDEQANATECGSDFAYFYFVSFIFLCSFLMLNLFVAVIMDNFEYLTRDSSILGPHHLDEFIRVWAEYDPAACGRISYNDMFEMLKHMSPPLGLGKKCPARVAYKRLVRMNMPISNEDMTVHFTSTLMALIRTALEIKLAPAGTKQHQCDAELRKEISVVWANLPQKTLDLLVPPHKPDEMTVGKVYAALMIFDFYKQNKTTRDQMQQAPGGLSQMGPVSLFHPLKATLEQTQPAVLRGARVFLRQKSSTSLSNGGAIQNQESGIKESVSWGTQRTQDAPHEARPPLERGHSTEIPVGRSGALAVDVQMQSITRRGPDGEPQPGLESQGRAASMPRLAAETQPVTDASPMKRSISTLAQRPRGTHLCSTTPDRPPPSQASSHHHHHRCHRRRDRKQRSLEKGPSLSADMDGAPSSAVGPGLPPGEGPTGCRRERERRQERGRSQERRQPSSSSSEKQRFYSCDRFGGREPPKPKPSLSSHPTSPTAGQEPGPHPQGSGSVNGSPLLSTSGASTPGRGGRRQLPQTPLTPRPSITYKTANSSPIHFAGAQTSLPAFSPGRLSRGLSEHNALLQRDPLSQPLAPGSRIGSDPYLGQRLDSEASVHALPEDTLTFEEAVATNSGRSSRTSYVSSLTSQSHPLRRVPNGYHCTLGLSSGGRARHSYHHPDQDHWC
T2 sequence (P54289 25-956 partner limits assumed): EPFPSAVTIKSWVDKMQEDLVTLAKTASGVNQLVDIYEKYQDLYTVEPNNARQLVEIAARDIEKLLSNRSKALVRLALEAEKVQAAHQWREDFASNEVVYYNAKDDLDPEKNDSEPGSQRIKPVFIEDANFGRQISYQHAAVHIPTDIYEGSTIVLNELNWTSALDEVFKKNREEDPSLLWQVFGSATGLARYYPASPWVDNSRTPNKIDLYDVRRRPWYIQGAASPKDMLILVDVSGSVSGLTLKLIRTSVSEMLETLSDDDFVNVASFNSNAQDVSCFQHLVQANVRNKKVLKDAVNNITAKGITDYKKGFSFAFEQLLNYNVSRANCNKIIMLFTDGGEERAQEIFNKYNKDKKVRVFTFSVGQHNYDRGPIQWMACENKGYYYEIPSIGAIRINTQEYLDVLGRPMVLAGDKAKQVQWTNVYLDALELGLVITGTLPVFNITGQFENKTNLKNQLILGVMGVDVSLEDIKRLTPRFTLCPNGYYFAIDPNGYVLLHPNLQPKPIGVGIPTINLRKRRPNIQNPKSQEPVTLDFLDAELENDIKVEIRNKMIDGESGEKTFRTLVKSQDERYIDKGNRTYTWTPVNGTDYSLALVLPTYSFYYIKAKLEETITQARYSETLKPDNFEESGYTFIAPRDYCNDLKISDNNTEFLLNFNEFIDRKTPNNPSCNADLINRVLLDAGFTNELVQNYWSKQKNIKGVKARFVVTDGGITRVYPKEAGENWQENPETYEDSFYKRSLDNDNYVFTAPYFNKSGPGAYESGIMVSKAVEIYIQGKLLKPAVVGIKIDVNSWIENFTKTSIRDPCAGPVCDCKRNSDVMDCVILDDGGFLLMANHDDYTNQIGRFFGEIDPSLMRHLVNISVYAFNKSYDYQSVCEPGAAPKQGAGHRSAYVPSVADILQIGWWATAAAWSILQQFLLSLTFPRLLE
T2 sequence (P54289 957-1103 partner limits assumed): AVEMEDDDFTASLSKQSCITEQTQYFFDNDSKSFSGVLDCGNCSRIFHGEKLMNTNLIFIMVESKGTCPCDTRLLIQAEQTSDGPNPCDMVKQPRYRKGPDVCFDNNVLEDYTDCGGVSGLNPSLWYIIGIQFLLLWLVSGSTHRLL
T2 sequence (Q02641 whole entry partner): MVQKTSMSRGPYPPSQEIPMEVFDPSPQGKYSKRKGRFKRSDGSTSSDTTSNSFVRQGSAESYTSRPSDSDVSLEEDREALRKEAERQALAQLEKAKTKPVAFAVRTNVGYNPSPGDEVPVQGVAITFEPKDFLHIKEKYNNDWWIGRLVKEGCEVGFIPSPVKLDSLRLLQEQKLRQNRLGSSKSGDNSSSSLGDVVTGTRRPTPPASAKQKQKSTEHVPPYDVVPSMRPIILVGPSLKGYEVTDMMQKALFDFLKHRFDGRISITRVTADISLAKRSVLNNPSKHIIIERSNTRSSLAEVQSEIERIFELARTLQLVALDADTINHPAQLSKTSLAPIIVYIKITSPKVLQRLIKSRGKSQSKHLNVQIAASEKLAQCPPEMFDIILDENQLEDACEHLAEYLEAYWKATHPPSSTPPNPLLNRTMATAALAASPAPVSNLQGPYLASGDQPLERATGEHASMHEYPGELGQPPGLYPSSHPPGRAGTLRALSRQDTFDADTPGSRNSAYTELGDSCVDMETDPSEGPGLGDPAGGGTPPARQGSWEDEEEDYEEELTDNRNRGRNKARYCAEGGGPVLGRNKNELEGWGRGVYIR
How it was run: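 Differentiated IMR-32 cells loaded with Indo-1 AM were preincubated with compound and 5 μM nitrendipine (L-type block) for 10 min at 30° C in HEPES/Tris pH 7.4 HBSS with 0.5% BSA. Cells were depolarized with KCl/CaCl2, and the 400/490 nm emission ratio rise over basal was measured. IC50 came from a four-parameter logistic fit.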

[6] = tested on: electroshock-induced tonic extensor seizures in CF-1 mice; test: Maximal electroshock testing; type: in vivo; settings: protected/tested
Method: Maximal Electroshock Testing
In this test, four representative compounds were tested for their anticonvulsant effects using the procedure described below.
Male CF-1 mice, 20 to 28 g, from Charles River Laboratories, Portage, Mich. were used in all experiments. Groups of 10 mice each were given various intravenous doses of test compound in aqueous solution with 10% Emulphan® Surfactant in a volume of 10 mL/kg of body weight. Electroshock was delivered by corneal electrodes with 60 Hz alternating current (50 mA root-mean-squared for 0.2 seconds) using a constant-current stimulator (Wahlquist Instruments, Salt Lake City, Utah). Untreated or saline-treated mice reliably had tonic extensor seizures with rearward extension of hindlimbs more than 3 seconds. These methods are similar to those published by Krall R. L.; Penry J. K.; White B. G.; and Kupferberg H. K. Antiepileptic Drug Development II. Anticonvulsant Drug Screening, Epilepsia, 1978; 19:409-428.

[7] = 10 mg/Kg iv, 15 min posttreatment

| inhibition at 1 µM [3] [%] | inhibition at 10 µM [3] [%] | IC50 [5] [nM] | melting point [°C] | inhibition at 1 µM ([5]; IMR-32, IMR-32 cells, at 1 μM, read-out: IMR32 % blockage at 1 μM) [%] | inhibition at 10 µM ([5]; IMR-32, IMR-32 cells, at 10 μM, read-out: IMR32 % blockage at 10 μM) [%] | SMILES | SCG K, % blockage at 1 μM [1] [% @ 1] | SCG K, % blockage at 10 μM [1] [% @ 10] | SCG Na, % blockage at 10 μM [2] [% @ 10] | responders at 30 mg/kg ([4]; 0.25 h, 15 min posttreatment) [%] | Number of Mice Protected from Tonic Convulsions [6, 7] | responders at 30 mg/kg ([4]; 0.75 h, 45 min posttreatment) [%] | Number of Mice Protected from Tonic Convulsions ([6]; 10 mg/Kg iv, 45 min posttreatment) | Number of Mice Protected from Tonic Convulsions ([6]; 30 mg/Kg iv, 15 min posttreatment) | Number of Mice Protected from Tonic Convulsions ([6]; 30 mg/Kg iv, 45 min posttreatment) |
| --- | --- | --- | --- | --- | --- | --- | --- | --- | --- | --- | --- | --- | --- | --- | --- |
| 17 | 16 | 820 |  |  |  | CC(C)C[C@H](NC(=O)N1CCCCCC1)C(=O)NCCCC(c1ccc(F)cc1)c1ccc(F)cc1 [Example 1, (S)-Azepane-1-carboxylic acid {1-[4,4-bis-(4-fluoro-phenyl)-butylcarbamoyl]-3-methyl-butyl}-amide] | 4.3 | 3 | 14 | 60 |  |  |  |  |  |
|  | 33 | 4400 | 180 to 181 |  |  | CC(C)C[C@H](NC(=O)N1CCCCCC1)C(=O)NC(c1ccccc1)c1ccccc1 [Example 3, (S)-Azepane-1-carboxylic acid [1-(benzhydryl-carbamoyl)-3-methyl-butyl]-amide] |  | 48 | 5 |  |  |  |  |  |  |
| 23 | 77 | 520 |  |  |  | CC(C)=CCN(C)[C@@H](CC(C)C)C(=O)NCCCC(c1ccc(F)cc1)c1ccc(F)cc1 [Example 13, (S)-4-Methyl-2-[methyl-(3-methyl-but-2-enyl)-amino]-pentanoic acid [4,4-bis-(4-fluoro-phenyl)-butyl]-amide monohydrochloride] | 10 | 48 | 95 |  | 3/5 |  |  |  |  |
|  |  |  |  | 62 | 87 | CC(C)C[C@H](NC1CCCCC1)C(=O)NCCCC(c1ccc(F)cc1)c1ccc(F)cc1.Cl [Example 15, (S)-2-Cyclohexylamino-4-methyl-pentanoic acid [4,4-bis-(4-fluoro-phenyl)-butyl]-amide monohydrochloride] |  |  |  | 100 | 5/5 | 100 | 2/5 | 3/3 | 5/5 |

From US6458781B1, “Substituted diarylalkyl amides as calcium channel antagonists” (priority 1998, dated 2002)
